Columns and labels:
[1] = system: aggregate of GCaMP-cardiomyocytes derived from human iPS cells; assay: GCaMP fluorescence wave (intracellular calcium) drug response of cardiomyocyte aggregates after freeze-thaw; format: cell-based; details: for change of TtP, CAD50, CAD70 and CAD90: 300 nM E4031, 1 μM astemizole, 1 μM nifekalant, 10 μM chromanole 293b, 30 μM mexiletine, 50 nM nifedipine; for change of PtP (beat interval): 300 nM isoproterenol, 1 μM propranol
Excerpt: A gene encoding GCaMP3, which is a calcium sensitive GFP that emits GFP fluorescence when bound to intracellular calcium, was introduced into a human iPS cell line (253G1) or a monkey iPS cell line (HT4M2) by AAVS1 region-specific gene transfer mediated by CRISPR. From the human GCaMP3-iPS cells, cardiomyocytes were induced in the same manner as in Section 1 to prepare an aggregate of cardiomyocytes that emitted GFP fluorescence in response to the change in intracellular calcium concentration during the beating. Also, from the monkey GCaMP-iPS cells, cardiomyocytes were induced using cytokines as described previously (Nat Biotechnol. 2007 September; 25(9): 1015-24. Epub 2007 Aug. 26) to prepare an aggregate of cardiomyocytes that emitted GFP fluorescence in response to the change in intracellular calcium concentration. Specifically, the monkey GCaMP-iPS cells were cultured for 24 hours with RPMI-B27 medium (Invitrogen) supplemented with human recombinant activin A (R&D Systems) (100 ng/ml), and then for four days with RPMI-B27 medium supplemented with human recombinant BMP4 (R&D Systems) (10 ng/ml). After the medium was replaced with RPMI-B27 medium without these cytokines, the cells were cultured for 21 days. The GCaMP-cardiomyocytes were dispersed into single cells with a trypsin/collagenase solution, and seeded on Sumilon PrimeSurface 96-well V-bottom plates at 1×10^5 cells/well to form uniform aggregates (700 to 1000 μm in diameter). The aggregates were used to analyze the change in intracellular calcium concentration wave, which synchronized the beating of cardiomyocytes.
derived from human iPS cells seven days after thawing to compare parameters of GCaMP fluorescence wave (change in intracellular calcium ion concentration) before and 10 minutes after the E4031 addition. Analyzed were time from the rise to the peak of fluorescence wave (TtP), and time from the rise to the peak of fluorescence wave and then to the decrease to 50% of the peak value (CaD50), to 70% of the peak value (CaD70), or to 90% of the peak value (CaD90) (FIG. 5-A).
E4031 was added to an aggregate of GCaMP-cardiomyocytes derived from human iPS cells seven days after thawing at 0, 0.3, 3, 30, or 300 nM to analyze the rate of change with E4031.

[2] = system: cardiomyocytes induced from pluripotent stem cells; details: cardiomyocytes induced by the method described in WO 2015/182765; cited from earlier work
[3] = system: aggregate of GCaMP-cardiomyocytes derived from human iPS cells; assay: Cardiotoxicity of anthracycline in cardiomyocyte aggregates after freeze-thaw (GCaMP fluorescence); format: cell-based
Experimental: To detect cardiotoxicity of anthracycline anticancer agents, doxorubicin (10 μM) or daunorubicin (20 μM), was added for 24 hours to an aggregate of GCaMP-cardiomyocytes derived from human iPS cells seven days after thawing. The intracellular calcium wave was plotted with GCaMP fluorescence for an aggregate of cardiomyocytes without any agent (control) (FIGS. 8-A, 8-B), three days after the addition of doxorubicin (FIG. 8-C), or three days after the addition of daunorubicin (FIG. 8-D).
The change in parameters of GCaMP fluorescence wave was analyzed with the addition of doxorubicin (10 μM) or daunorubicin (20 μM) (FIGS. 9-A, 9-B).

[4] = doxorubicin 10 μM or daunorubicin 20 μM
[5] = 50 μM ryanodine, seven days after thawing

Cc1cccc(CCN2CCC(C(=O)c3ccc(NS(C)(=O)=O)cc3)CC2)n1 [E4031]
change of TtP, CAD50, CAD70 and CAD90 ([1]; seven days after thawing): extended
extension of all GCaMP fluorescence wave parameters (TtP, CaD50, CaD70, CaD90) ([1]; 300 nM, 10 minutes after addition vs before, aggregate seven days after thawing): around 40%
concentration at or above which TtP, CAD50, CAD70 and CAD90 were extended in a concentration-dependent manner ([1]; tested at 0, 0.3, 3, 30, 300 nM, seven days after thawing): ≥ 3 nM
effect on action potential [2]: prolongation of action potential

COc1ccc(CCN2CCC(Nc3nc4ccccc4n3Cc3ccc(F)cc3)CC2)cc1 [astemizole]
change of TtP, CAD50, CAD70 and CAD90 ([1]; seven days after thawing): extended

CCS(=O)(=O)N(C)[C@H]1c2cc(C#N)ccc2OC(C)(C)[C@@H]1O [chromanole 293b]
change of TtP, CAD50, CAD70 and CAD90 ([1]; seven days after thawing): extended
effect on action potential [2]: prolongation of action potential

COc1cccc2c1C(=O)c1c(O)c3c(c(O)c1C2=O)C[C@@](O)(C(C)=O)C[C@@H]3O[C@H]1C[C@H](N)[C@H](O)[C@H](C)O1 [daunorubicin]
amplitude of GCaMP fluorescence wave [3, 4]: tended to decrease significantly
change of PtP [3, 4]: significantly decreased
change of TtP and CAD [3, 4]: not significantly changed
intracellular calcium wave findings (cardiotoxicity) ([3]; doxorubicin 10 μM or daunorubicin 20 μM added for 24 hours, three days after the addition): short PtP, tachycardia, variable heartbeat interval, and arrhythmia

CC(C)NCC(O)c1ccc(O)c(O)c1 (centres unmarked) [isoproterenol]
change of PtP (beat interval) [1, 5]: decreased PtP

Cc1cccc(C)c1OCC(C)N (centres unmarked) [mexiletine]
change of TtP, CAD50, CAD70 and CAD90 ([1]; seven days after thawing): extended

Cn1c(NCCN(CCO)CCCc2ccc([N+](=O)[O-])cc2)cc(=O)n(C)c1=O [nifekalant]
change of TtP, CAD50, CAD70 and CAD90 ([1]; seven days after thawing): extended

CC(C)NCC(O)COc1cccc2ccccc12 (centres unmarked) [propranol]
change of PtP (beat interval) [1, 5]: increased PtP

ryanodine
change of PtP (beat interval) [1, 5]: increased PtP
peak value of GCaMP fluorescence (PeakValue, intracellular calcium increase) [1, 5]: decreased

From patent US12018280B2, “Method for freezing aggregates of pluripotent stem cell-derived cardiomyocytes” (KYOTO UNIVERSITY, priority 2016, dated 2024)
